# Experimental data taken from article PMC11584639 (Nature Communications, 2024).
# Molecular target: Bruton's tyrosine kinase (BTK) (Mus musculus, UniProt P35991)
# Format: cell-based
# Chain of Bruton's tyrosine kinase (BTK) (P35991 2-659): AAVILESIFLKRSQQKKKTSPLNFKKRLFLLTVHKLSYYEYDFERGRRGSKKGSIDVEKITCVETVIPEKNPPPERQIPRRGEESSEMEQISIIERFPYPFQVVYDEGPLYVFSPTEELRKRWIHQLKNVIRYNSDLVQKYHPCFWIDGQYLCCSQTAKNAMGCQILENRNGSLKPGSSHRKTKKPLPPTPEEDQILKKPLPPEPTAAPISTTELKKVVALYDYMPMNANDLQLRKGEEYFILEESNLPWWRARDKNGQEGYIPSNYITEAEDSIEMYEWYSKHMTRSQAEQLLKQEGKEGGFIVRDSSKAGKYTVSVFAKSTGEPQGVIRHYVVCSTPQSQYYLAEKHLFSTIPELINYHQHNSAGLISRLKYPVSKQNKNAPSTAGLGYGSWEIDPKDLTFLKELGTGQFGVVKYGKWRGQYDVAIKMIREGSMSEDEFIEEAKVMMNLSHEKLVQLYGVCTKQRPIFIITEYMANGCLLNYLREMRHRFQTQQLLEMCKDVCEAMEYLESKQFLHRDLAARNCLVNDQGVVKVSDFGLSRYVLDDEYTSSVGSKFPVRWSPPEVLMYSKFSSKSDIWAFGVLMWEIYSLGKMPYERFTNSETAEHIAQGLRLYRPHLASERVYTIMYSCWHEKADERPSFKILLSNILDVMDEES
smiles,measurement,value
C=CC(=O)N1CCC[C@@H](n2c(=O)n(-c3ccc(Oc4ccccc4)cc3)c3c(N)nccc32)C1 [tolebrutinib],pBTK-to-BTK ratio by Western blot in primary mouse microglia with or without com,"This stimulus increased BTK phosphorylation, which was blocked by tolebrutinib"
